PubChem BioAssay (NCI)
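Results reflect a 48-hour exposure of cells in 96-well plates to compound at five concentrations. Abbreviation: GI50, concentration required for 50% inhibition of growth. The concentration for full growth arrest is given as TGI.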

Tests used:
Test in all cases: DTP human tumour cell line panel, 48 h
786-0 renal = tested on: 786-0 renal
A498 renal = tested on: A498 renal
A549 NSCLC = tested on: A549 NSCLC
ACHN renal = tested on: ACHN renal
BT-549 breast = tested on: BT-549 breast
CAKI-1 renal = tested on: CAKI-1 renal
CCRF-CEM leukemia = tested on: CCRF-CEM leukemia
COLO 205 colon = tested on: COLO 205 colon
DU-145 prostate = tested on: DU-145 prostate
EKVX NSCLC = tested on: EKVX NSCLC
HCT-116 colon = tested on: HCT-116 colon
HCT-15 colon = tested on: HCT-15 colon
HL-60(TB) leukemia = tested on: HL-60(TB) leukemia
HOP-62 NSCLC = tested on: HOP-62 NSCLC
HOP-92 NSCLC = tested on: HOP-92 NSCLC
HS 578T breast = tested on: HS 578T breast
IGROV1 ovarian = tested on: IGROV1 ovarian
K-562 leukemia = tested on: K-562 leukemia
KM12 colon = tested on: KM12 colon
LOX IMVI melanoma = tested on: LOX IMVI melanoma
M14 melanoma = tested on: M14 melanoma
MCF7 breast = tested on: MCF7 breast
MDA-MB-231 breast = tested on: MDA-MB-231 breast
MDA-MB-435 = tested on: MDA-MB-435
MOLT-4 leukemia = tested on: MOLT-4 leukemia
NCI-H226 lung = tested on: NCI-H226 lung
NCI-H23 lung = tested on: NCI-H23 lung
NCI-H460 lung = tested on: NCI-H460 lung
NCI-H522 lung = tested on: NCI-H522 lung
NCI/ADR-RES ovarian = tested on: NCI/ADR-RES ovarian
OVCAR-3 ovarian = tested on: OVCAR-3 ovarian
OVCAR-4 ovarian = tested on: OVCAR-4 ovarian
OVCAR-5 ovarian = tested on: OVCAR-5 ovarian
OVCAR-8 ovarian = tested on: OVCAR-8 ovarian
PC-3 prostate = tested on: PC-3 prostate
RPMI-8226 leukemia = tested on: RPMI-8226 leukemia
RXF 393 renal = tested on: RXF 393 renal
SF-268 CNS = tested on: SF-268 CNS
SF-295 CNS = tested on: SF-295 CNS
SF-539 CNS = tested on: SF-539 CNS
SK-MEL-2 melanoma = tested on: SK-MEL-2 melanoma
SK-MEL-28 melanoma = tested on: SK-MEL-28 melanoma
SK-MEL-5 melanoma = tested on: SK-MEL-5 melanoma
SK-OV-3 ovarian = tested on: SK-OV-3 ovarian
SN12C renal = tested on: SN12C renal
SNB-19 CNS = tested on: SNB-19 CNS
SR leukemia = tested on: SR leukemia
SW-620 colon = tested on: SW-620 colon
TK-10 renal = tested on: TK-10 renal
U251 CNS = tested on: U251 CNS
UACC-257 melanoma = tested on: UACC-257 melanoma
UACC-62 melanoma = tested on: UACC-62 melanoma
UO-31 renal = tested on: UO-31 renal

Cn1nc(-c2cccs2)cc1/N=C(\N)C(C)(C#N)Cc1ccccc1 (stereo unspecified)
GI50 (786-0 renal): 39.7 µM
TGI (786-0 renal): > 100 µM
GI50 (A498 renal): 32 µM
TGI (A498 renal): 64.7 µM
GI50 (A549 NSCLC): 23.4 µM
TGI (A549 NSCLC): 57.1 µM
GI50 (ACHN renal): 20.7 µM
TGI (ACHN renal): 48.4 µM
GI50 (BT-549 breast): 35.4 µM
TGI (BT-549 breast): > 100 µM
GI50 (CAKI-1 renal): 22.9 µM
TGI (CAKI-1 renal): 60.8 µM
GI50 (CCRF-CEM leukemia): 46.4 µM
TGI (CCRF-CEM leukemia): > 100 µM
GI50 (COLO 205 colon): 39.9 µM
TGI (COLO 205 colon): > 100 µM
GI50 (DU-145 prostate): 47.6 µM
TGI (DU-145 prostate): > 100 µM
GI50 (EKVX NSCLC): 47.4 µM
TGI (EKVX NSCLC): > 100 µM
GI50 (HCT-116 colon): 27.2 µM
TGI (HCT-116 colon): > 100 µM
GI50 (HCT-15 colon): 29.3 µM
TGI (HCT-15 colon): > 100 µM
GI50 (HL-60(TB) leukemia): 26.5 µM
TGI (HL-60(TB) leukemia): 59.5 µM
GI50 (HOP-62 NSCLC): 38.7 µM
TGI (HOP-62 NSCLC): > 100 µM
GI50 (HOP-92 NSCLC): 32.7 µM
TGI (HOP-92 NSCLC): > 100 µM
GI50 (HS 578T breast): 18.3 µM
TGI (HS 578T breast): 58.5 µM
GI50 (IGROV1 ovarian): 54.2 µM
TGI (IGROV1 ovarian): > 100 µM
GI50 (K-562 leukemia): 33.3 µM
TGI (K-562 leukemia): > 100 µM
GI50 (KM12 colon): 29 µM
TGI (KM12 colon): 93.7 µM
GI50 (LOX IMVI melanoma): 23.3 µM
TGI (LOX IMVI melanoma): 53.3 µM
GI50 (M14 melanoma): 29.9 µM
TGI (M14 melanoma): > 100 µM
GI50 (MCF7 breast): 31.5 µM
TGI (MCF7 breast): > 100 µM
GI50 (MDA-MB-231 breast): 16.3 µM
TGI (MDA-MB-231 breast): 39.4 µM
GI50 (MDA-MB-435): 25.7 µM
TGI (MDA-MB-435): 62.2 µM
GI50 (MOLT-4 leukemia): 67.1 µM
TGI (MOLT-4 leukemia): > 100 µM
GI50 (NCI-H226 lung): 20.4 µM
TGI (NCI-H226 lung): 58.1 µM
GI50 (NCI-H23 lung): 27.7 µM
TGI (NCI-H23 lung): 53.9 µM
GI50 (NCI-H460 lung): 26.7 µM
TGI (NCI-H460 lung): 80.7 µM
GI50 (NCI-H522 lung): 56.1 µM
TGI (NCI-H522 lung): > 100 µM
GI50 (NCI/ADR-RES ovarian): 23.7 µM
TGI (NCI/ADR-RES ovarian): 49.5 µM
GI50 (OVCAR-3 ovarian): 21.9 µM
TGI (OVCAR-3 ovarian): 58.3 µM
GI50 (OVCAR-4 ovarian): 28.1 µM
TGI (OVCAR-4 ovarian): > 100 µM
GI50 (OVCAR-5 ovarian): 31.6 µM
TGI (OVCAR-5 ovarian): 75.8 µM
GI50 (OVCAR-8 ovarian): 37.1 µM
TGI (OVCAR-8 ovarian): 98.7 µM
GI50 (PC-3 prostate): 32.4 µM
TGI (PC-3 prostate): 90.4 µM
GI50 (RPMI-8226 leukemia): 15.5 µM
TGI (RPMI-8226 leukemia): 46.5 µM
GI50 (RXF 393 renal): 49.3 µM
TGI (RXF 393 renal): 90.3 µM
GI50 (SF-268 CNS): 36.9 µM
TGI (SF-268 CNS): > 100 µM
GI50 (SF-295 CNS): 26.9 µM
TGI (SF-295 CNS): 75.7 µM
GI50 (SF-539 CNS): 37.6 µM
TGI (SF-539 CNS): 77.1 µM
GI50 (SK-MEL-2 melanoma): 63.7 µM
TGI (SK-MEL-2 melanoma): > 100 µM
GI50 (SK-MEL-28 melanoma): 70.3 µM
TGI (SK-MEL-28 melanoma): > 100 µM
GI50 (SK-MEL-5 melanoma): 18.4 µM
TGI (SK-MEL-5 melanoma): 37.4 µM
GI50 (SK-OV-3 ovarian): 44.8 µM
TGI (SK-OV-3 ovarian): > 100 µM
GI50 (SN12C renal): 24.8 µM
TGI (SN12C renal): 79.3 µM
GI50 (SNB-19 CNS): 62.7 µM
TGI (SNB-19 CNS): > 100 µM
GI50 (SR leukemia): 45.2 µM
TGI (SR leukemia): > 100 µM
GI50 (SW-620 colon): 34.2 µM
TGI (SW-620 colon): > 100 µM
GI50 (TK-10 renal): 27.3 µM
TGI (TK-10 renal): 91.6 µM
GI50 (U251 CNS): 21.9 µM
TGI (U251 CNS): 52.7 µM
GI50 (UACC-257 melanoma): 32 µM
TGI (UACC-257 melanoma): 71.8 µM
GI50 (UACC-62 melanoma): 22.8 µM
TGI (UACC-62 melanoma): 49.6 µM
GI50 (UO-31 renal): 44.1 µM
TGI (UO-31 renal): > 100 µM
